Assay results taken from patent publication US8927502B2, “Embedded chimeric peptide nucleic acids and uses thereof” (ICahn School of Medicine at Mount Sinai, priority 2010, dated 2015).
Where two headings read alike, the source gives them in different places.

Legend:
[1] = test system: human γ-globin gene in MBC-βYAC cells; assay: γ-globin expression by quantitative RT-PCR in β-YAC mouse bone marrow cells; format: cell-based
Source text: To test this, a line of mouse bone marrow cells engineered to carry a yeast artificial chromosome that contains the complete human β-like globin locus (β-YAC) was used.
After treatment, cells were harvested and mRNA was extracted for reverse transcriptase (RT)-quantitative polymerase chain reaction (qPCR) using two different sets of published primers that recognize sequences within the γ-globin gene.
Total RNA from β-YAC MBCs were isolated with a RNeasy micro kit (Qiagen) following the manufacturer's instructions. RNA concentrations were quantified using a Nanodrop. Reverse transcription of RNA was performed with Promega's Reverse Transcription System and expression levels were quantified using a Quantitect SYBR Green PCR kit from Qiagen in conjunction with an ABI PRISM 7900HT and SDS software [see Lohmann, F. & Bieker, J. J. supra] Q-PCR results for globin expression were normalized by 2−[(Ct γ−Ct β)−(Ct γ [no PNA]−Ct β [noPNA])][see Livak, K. J. & Schmittgen, T. D., Analysis of relative gene expression data using real-time quantitative PCR and the 2(−Delta Delta C(T)) Method. Methods 25, 402-408 (2001)] divided by the PNA incorporation efficiency (determined from the live cell image data). Each reaction was performed in triplicate.

[2] = test system: human γ-globin promoter DNA oligonucleotide (wild type or mutated target sequence); conditions: for binding of PNA to its target DNA oligo (bound/input): wild type vs mutant oligo, PNA 0-10 μM, 37° C. overnight
Description: FIG. 1 depicts in vitro target binding specificity of four PNAs designed to interact with the human γ-globin promoter. […] The relative location of known promoter elements within this region is also indicated. Orientation of the PNA molecule relative to the promoter sequence is shown above, with a lys at its 3′-end and a biotin molecule (circle) attached at the 5′-end. In FIG. 1(b), different concentrations of PNAs (0-10 μM) were incubated with a constant amount of radioactively labeled DNA oligonucleotide (10 nM) containing either the wild type (wt) or mutated (mut) target sequence followed by incubation with streptavidin Dynabeads and collection with a magnetic particle concentrator. Bound/input ratios were obtained after scintillation counter analysis. […] The A+G sequence ladder is shown in lane 1, along with the nucleotide sequence of the γ-globin promoter aligned on the left.
A novel assay was developed to monitor specific binding of PNA molecules to their cognate DNA site (FIG. 1(b)). 2 ng of ^32P-labelled double-stranded DNA oligonucleotide (designed at regions of the γ-promoter centered at each of the four PNA target sites) was incubated with various molar excess (0× to 1000×) of PNA at 37° C. overnight in a final volume of 15 uL with 10 mM Tris and 1 mM of EDTA. The resultant material was incubated with equal amount of Dynabeads M280-streptavidin (DYNAL biotech) for […] at 25° C. Beads had been prepared by washing twice with BW buffer (10 mM Tris, pH7.5, 1 mM EDTA, 2.0M NaCl). The beads were pulled down with a Dynal MPC-S magnetic particle concentrator and washed twice with BW buffer. Samples were finally suspended in 50 uL BW buffer, and radioactivity was counted for 10 minutes in a scintillation counter to yield the average counts per minute (cpm) taken for each sample, which was then divided by the cpm of the input (1 uL of the radio-labeled oligo).

[3] = test system: γ-globin promoter luciferase reporter; format: cell-based, human
Description: The γ-globin reporter contained a 1.5 Kb Human HS2 fragment upstream of the −299 to +37 human γ-globin promoter in Promega's (Madison, Wis.) pGL2 Basic plasmid. [See Caterina, J. J., Donze, D., Sun, C. […] Nucleic Acids Res 22, 2383-2391 (1994).]
Transfection of K562 cells was performed using the DMRIE lipofection method (Gibco, Invitrogen, Carlsbad, Calif.). K562 cells were counted and 1×10^5 cells were resuspended in 0.1 mL OPTI-MEM in a 12-well plate (BD Falcon, Franklin Lakes, N.J.). Experiments were all done in triplicates. 1.5 ng Renilla plasmid (Promega Corporation. Madison, Wis.) and 0.5 μg reporter construct were added to each well. After 2 hours of transfection, PNAs were added to a final concentration of 10 μM. 2 hours later, 1 ml RPMI and a final concentration of 10% FBS were added to each well. This was followed by incubation at 37° C. for 36 hours.
36 hours after PNA addition, K562 cells were collected by centrifugation at 2500 rpm. Media was discarded and cells were washed once with 1×PBS and resuspended in 250 μL 1× passive lysis buffer (PLB) (Promega). Tubes that contained cells were put on a rocker platform for 10 minutes at room temperature. Cells were then centrifuged at 13000 rpm and resuspended in 200 μL 1×PLB, loaded on a 96 well plate and further analyzed with a Turner Biosystem Microplate Luminometer. […] Mol Cell Biol 27, 8547-8560 (2007).] Luciferase values were divided by the Renilla value from the same sample after it had been divided by 1000. To minimize the differences in between loading, each sample was loaded in three different wells and the average of three was calculated.

[4] = test system: endogenous γ-globin promoter; assay: Chromatin association assay in K562 cells (streptavidin bead pull-down, quantitative PCR); format: cell-based, human; conditions: 10 μM in K562 cells
Source text: To determine whether PNA78 can interact with its target site in vivo, a modification of the chromatin immunoprecipitation assay was developed. […] Along with the “no addition” negative control, a variant of PNA78 that contain two point mutations (MUT PNA78) was synthesized and used it as an additional negative control along with a “TAT alone” control.
This assay incorporates elements of chromatin [see Siatecka, M., Xue, L. & Bieker, J. J., Sumoylation of EKLF promotes transcriptional repression and is involved in inhibition of megakaryopoiesis, Mol Cell Biol 27, 8547-8560 (2007)] and biotinylated protein [see Viens, A., Mechold, U., Lehrmann, H., Harel-Bellan, A. & Ogryzko, V., Use of protein biotinylation in vivo for chromatin immunoprecipitation. Anal Biochem 325, 68-76 (2004)] immunoprecipitation protocols. PNA 78/TAT or mutant (MUT) PNA 78/TAT were added to 10^7 K562 cells to a final concentration of 10 μM. After […], a portion of the cells were analyzed and quantified for PNA incorporation efficiency by confocal analysis of live cells (as above), and the rest were harvested and cross-linked with 0.4% formaldehyde (Fisher Scientific, F79-500) for 10 minutes in room temperature then quenched by addition of glycine in the final concentration of 0.125 M for another 10 minutes. […]
After 16 hours of incubation of K562 cells, any formed PNA-chromatin complex was cross-linked and cells were disrupted and chromatin was sheared by sonication. […] The DNA was purified for sequence identification by quantitative PCR. To more precisely quantitate the extent of PNA entry into the nucleus, a portion of the cells from each treatment was collected, stained with the DRAQ5 live-cell nuclear stain, attached to chamber-slides, and inspected under confocal microscopy to compare PNA and TAT nuclear entry efficiency.
One microliter of DNA was used in 20 μl of quantitative PCR reaction using a Quantitect SYBR Green PCR kit from Qiagen (Valenica, Calif.) and the presence of γ-globin promoter sequences was quantified with an ABI PRISM 7900HT and SDS software. […]

[5] = test system: PNA78 target sequence/minimal SV40 promoter luciferase reporter in 293T cells; assay: Luciferase reporter with four repeats of PNA78 target sequence and minimal SV40 promoter in 293T cells; format: cell-based
[6] = test system: PNA78 target sequence/minimal SV40 promoter luciferase reporter in K562 cells; assay: Luciferase reporter with four repeats of PNA78 target sequence and minimal SV40 promoter in K562 cells; format: cell-based, human
[7] = test system: γ-globin promoter region −299 to +37; conditions: PNA 50 uM, overnight at 37° C.
Description: To further confirm the observation in the magnetic-pull down assay, permanganate (KMnO4) probing of the PNA78/DNA interaction in solution was carried out (FIG. 1(c)). […] Methods Mol Biol 208, 91-109 (2002)], 1 ng of a singly ^32P-end-labeled, gel purified RsaI/XhoI fragment derived from the p250 plasmid that contains the γ-globin promoter region −299 to +37 was incubated in a volume of 15 μL with a final concentration of 10 mM Tris and 1 mM EDTA for 30 minutes at 37° C. PNA was added at a final concentration of 50 uM for further incubation overnight at 37° C. 1 uL 20 mM KMnO4 was added to the reaction, and after 15 s 10 uL stop buffer (1.5 M sodium acetate, 1 M 2-mercaptoethanol, Ph 7.0) was added. 2.5× vol of 96% ethanol was added and the DNA collected by centrifugation at 13000 rpm for 15 minutes. The supernatant was removed and the DNA pellet dissolved in 100 uL 10% piperidine followed by incubation at 90° C. for 20 minutes. The lympholized DNA sample was resuspended in 8 μL FA buffer (80% deionized fomamide, 10 mM EDTA, 0.25% xylenecyanol FF, 0.25% bromphenol blue). DNA was denatured at 90° C. for 2 minutes, chilled on ice, and then electrophoresed on thin 10% polyacrylamide gels containing 7 M urea. The dried gel was then exposed for autoradiography.

[8] = test system: γ-globin protein in human peripheral blood CD34+ cells
Description: (§1) K562 cells served as a positive control. FIG. 13(c) contains dot plots and histograms from toxicity analysis by flow cytometry of cultured CD34+ cells after PNA treatment.
(§2) Purified CD34+ cells were cultured, treated at the end of day 2 with the various PNA chimeras or with no PNA, and harvested 16 hours later for analysis.

[9] = test system: γ-globin expression in human mobilized peripheral blood CD34+ cells; conditions: treated at end of day 2, harvested 16 hours later
Description: as §1, §2

[10] = test system: γ-globin protein in MBC-βYAC cells; conditions: not detectable in untreated cells
Description: K562 cells were also stained and served as a positive control for γ-globin protein detection (arrowheads).
At 48 hours post-PNA treatment, 100K MBC-βYAC cells were collected and spun onto frosted slides (Fisher) in a Shandon Cytospin 2 centrifuge at 500 rpm for 5 minutes. All steps were carried out at room temperature except when indicated. Cells were fixed for 4 minutes in ice-cold acetone/methanol (1:1) on ice and rinsed twice with 2% BSA/PBS. Samples were then incubated with blocking solution (10% FCS, 0.05% NP40/PBS) for 30 minutes followed by a two-hour incubation with hemoglobin γ antibody (Santa Cruz Biotechnology, sc-21756) diluted 1:100 in blocking solution. Slides were washed 3× with 2% BSA, 0.05% NP40/PBS and then incubated with goat anti-mouse secondary antibody conjugated to Alexa 568 (Invitrogen) at a 1:50 dilution for one hour in a dark chamber. Slides were then washed 3× with 2% BSA/PBS with a final rinse in PBS and mounted with DAPI-containing Vectashield. DAPI and Alexa568 images were visualized on a Zeiss spinning disc confocal microscope (PerkinElmer).

[11] = wild type γ-promoter, 10 μM, 36 hours

Substance: Bio-OO-CGSDALDDFDLDML-O-TACTCTAAGACTATT-O-YGRKKRRQRRR [Bio-ATF/PNA78/TAT]
- ability to activate γ-globin expression ([1]; biotin at the extreme 5′ end): precluded its ability to activate γ-globin expression

Substance: Biotin-OO-GGCTATTGGTCAAGGC-k [PNA116]
- binding to the mutant DNA target [2]: bound to the mutant DNA target to an unacceptable extent
- binding of PNA to its target DNA oligo (bound/input) [2]: bound their target DNA oligo in proportion to their input

Substance: YGRKKRRQRRR [TAT alone, reference compound]
- effect on activity of γ-globin luciferase reporter (superactivation) [3, 11]: no effect
- interaction with target sequence within the γ-globin promoter (quantitative PCR of precipitated DNA) [4]: not higher than the ‘no addition’ control

Substance: Bio-OO-DFDLDMLGDFDLDMLG-O-TACTCTAAGACTATT-O-YGRKKRRQRRR [VP2/PNA78/TAT]
- luciferase activity increase [5]: not observed at all
- effect on activity of γ-globin luciferase reporter (superactivation) [3, 11]: little effect beyond that seen with PNA78/TAT
- luciferase activity increase compared to non-treated cells [6]: 2.3 fold

Substance: Biotin-OO-TACTCTAAGACTATT-O-k [PNA78]
- binding to target region within the γ-globin promoter fragment [7]: binds specifically to its target region
- discrimination between wild type and mutant oligos [2]: ~25 fold
- binding of PNA to its target DNA oligo (bound/input) [2]: bound their target DNA oligo in proportion to their input

Substance: Biotin-OO-TACTCTAAGACTATT-O-YGRKKRRQRRR [PNA78/TAT]
- effect on activity of γ-globin luciferase reporter (superactivation) [3]: stronger
- superactivation of γ-promoter reporter mutated at the PNA78 target site [3]: negated its ability to be superactivated
- interaction with target sequence within the γ-globin promoter (quantitative PCR of precipitated DNA) [4]: greater than the non-specific MUT PNA78 and TAT alone

Substance: Biotin-OO-TGTGGAACTGCTGAA-O-k [PNA7]
- binding of PNA to its target DNA oligo (bound/input) [2]: did not discriminate or bind well

Substance: H2N-CGSDALDDFDLDML-Biotin-O-TACTCTAAGACTATT-O-YGRKKRRQRRR [ATF-Bio/PNA78/TAT]
- increase of γ-globin levels/expression ([1]; 16 hours after PNA treatment, in comparison to cells treated with PNA78/TAT alone): 7 fold
- γ-globin protein accumulation [8]: γ-globin protein accumulation solely in those cells
- cells positive for γ-globin protein ([8]; visual analysis of ≧100 cells per field): 22%
- increase of γ-globin expression compared to untreated cells [9]: ~5 fold
- γ-globin protein expression in the cytoplasm [10]: levels approaching that seen in uninduced K562 cells

Substance: Biotin-OO-TACTATAAAACTATT-O-YGRKKRRQRRR [MUT PNA78/TAT]
- interaction with target sequence within the γ-globin promoter (quantitative PCR of precipitated DNA) [4]: not higher than the ‘no addition’ control

Substance: Biotin-OO-GAGTTTAGCCAGG-O-k [PNA150]
- binding of PNA to its target DNA oligo (bound/input) [2]: did not discriminate or bind well

Substance: Biotin-OO-TACTCTAAGACTATT-O-PKKKRKV [PNA78/NLS]
- effect on activity of γ-globin luciferase reporter (superactivation) [3, 11]: mild
